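Step 1: Grow cells in 96-well plates. Step 2: Expose to compound for 48 hours at 5 concentrations. Step 3: Interpolate endpoints linearly; if unreached, use highest concentration. Abbreviation: GI50, concentration required for 50% inhibition of growth.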 The source made the active and inactive calls. No stated cut-off is given here; in the data, active = GI50 up to about 1.1 µM and inactive = higher.
Experiments:
Assay in all cases: growth of human tumour cells (NCI), 48 h
RPMI-8226 = system: RPMI-8226
TK-10 = system: TK-10
CCRF-CEM = system: CCRF-CEM
MDA-MB-231 = system: MDA-MB-231
SF-539 = system: SF-539
SF-268 = system: SF-268
ACHN = system: ACHN
COLO 205 = system: COLO 205
UACC-257 = system: UACC-257
NCI/ADR-RES = system: NCI/ADR-RES
PC-3 = system: PC-3
RXF 393 = system: RXF 393
KM12 = system: KM12
MDA-MB-435 = system: MDA-MB-435
M14 = system: M14
SK-MEL-28 = system: SK-MEL-28
SNB-75 = system: SNB-75
HCT-15 = system: HCT-15
IGROV-1 = system: IGROV-1
786-0 = system: 786-0
DU-145 = system: DU-145
A498 = system: A498
LOX IMVI = system: LOX IMVI
NCI-H522 = system: NCI-H522
U-251 = system: U-251
EKVX = system: EKVX
A549 = system: A549
SF-295 = system: SF-295
SN12C = system: SN12C
SW-620 = system: SW-620
K562 = system: K562
CAKI-1 = system: CAKI-1
UO-31 = system: UO-31
Hs-578T = system: Hs-578T
SR = system: SR
UACC-62 = system: UACC-62
SK-MEL-5 = system: SK-MEL-5
MDA-N = system: MDA-N
MCF7 = system: MCF7
BT-549 = system: BT-549
SK-OV-3 = system: SK-OV-3
HT-29 = system: HT-29
SNB-19 = system: SNB-19
HOP-62 = system: HOP-62
HCC 2998 = system: HCC 2998
OVCAR-8 = system: OVCAR-8
NCI-H23 = system: NCI-H23
OVCAR-4 = system: OVCAR-4
HOP-92 = system: HOP-92
Malme-3M = system: Malme-3M
MOLT-4 = system: MOLT-4
OVCAR-5 = system: OVCAR-5
SK-MEL-2 = system: SK-MEL-2
OVCAR-3 = system: OVCAR-3
T47D = system: T47D
NCI-H460 = system: NCI-H460
HCT-116 = system: HCT-116
HL-60 = system: HL-60
NCI-H226 = system: NCI-H226

Measured: GI50

CN(C)Cc1cc(C(C)(C)C)cc(CN(C)C)c1O
inactive: RPMI-8226 > 100 µM | TK-10 67.3 µM | CCRF-CEM 21.4 µM | MDA-MB-231 92.5 µM | SF-539 86.7 µM | SF-268 79.3 µM | ACHN 65.3 µM | COLO 205 35.8 µM | UACC-257 > 100 µM | NCI/ADR-RES 34.2 µM | PC-3 77.8 µM | RXF 393 > 100 µM | KM12 70.8 µM | MDA-MB-435 > 100 µM | M14 > 100 µM | SK-MEL-28 > 100 µM | SNB-75 > 100 µM | IGROV-1 > 100 µM | 786-0 60.1 µM | DU-145 83.8 µM | A498 > 100 µM | LOX IMVI 95.9 µM | NCI-H522 43.5 µM | U-251 98.6 µM | EKVX 40.6 µM | A549 76.6 µM | SF-295 44.6 µM | SN12C 73.3 µM | SW-620 66.1 µM | K562 > 100 µM | CAKI-1 > 100 µM | UO-31 21.3 µM | Hs-578T > 100 µM | SR 54.8 µM | UACC-62 > 100 µM | SK-MEL-5 > 100 µM | MDA-N > 100 µM | MCF7 96.2 µM | BT-549 > 100 µM | SK-OV-3 > 100 µM | HT-29 35.8 µM | SNB-19 > 100 µM | HOP-62 68.5 µM | HCC 2998 17.1 µM | OVCAR-8 98.4 µM | NCI-H23 > 100 µM | OVCAR-4 > 100 µM | HOP-92 > 100 µM | Malme-3M > 100 µM | MOLT-4 49.2 µM | OVCAR-5 57.3 µM | SK-MEL-2 > 100 µM | OVCAR-3 28.8 µM | T47D > 100 µM | NCI-H460 36.4 µM | HCT-116 35.6 µM
30.4 µM: HCT-15

COc1ccc(NC=O)c(C(=O)CCNC(C)=O)c1
> 100 µM: HCT-15
inactive: RPMI-8226 > 100 µM | TK-10 > 100 µM | CCRF-CEM > 100 µM | MDA-MB-231 > 100 µM | SF-539 > 100 µM | SF-268 > 100 µM | ACHN > 100 µM | COLO 205 > 100 µM | UACC-257 > 100 µM | NCI/ADR-RES > 100 µM | PC-3 > 100 µM | RXF 393 > 100 µM | KM12 > 100 µM | MDA-MB-435 > 100 µM | M14 > 100 µM | SNB-75 > 100 µM | IGROV-1 > 100 µM | 786-0 > 100 µM | DU-145 > 100 µM | A498 > 100 µM | LOX IMVI > 100 µM | NCI-H522 > 100 µM | U-251 > 100 µM | EKVX > 100 µM | A549 > 100 µM | SF-295 > 100 µM | SN12C > 100 µM | SW-620 > 100 µM | K562 > 100 µM | CAKI-1 > 100 µM | HL-60 > 100 µM | UO-31 > 100 µM | Hs-578T > 100 µM | SR > 100 µM | UACC-62 > 100 µM | SK-MEL-5 > 100 µM | MDA-N > 100 µM | MCF7 > 100 µM | BT-549 > 100 µM | SK-OV-3 > 100 µM | HT-29 > 100 µM | SNB-19 > 100 µM | OVCAR-8 > 100 µM | NCI-H23 > 100 µM | OVCAR-4 > 100 µM | HOP-92 > 100 µM | MOLT-4 > 100 µM | OVCAR-5 > 100 µM | SK-MEL-2 > 100 µM | OVCAR-3 > 100 µM | T47D > 100 µM | NCI-H226 > 100 µM | NCI-H460 > 100 µM | HCT-116 > 100 µM

CSc1c(CC(=O)O)n(Cc2ccccc2)c2ccccc12
74.5 µM: HCT-15
inactive: RPMI-8226 71.1 µM | TK-10 > 100 µM | CCRF-CEM 84.7 µM | MDA-MB-231 > 100 µM | SF-539 > 100 µM | SF-268 > 100 µM | ACHN > 100 µM | COLO 205 > 100 µM | UACC-257 > 100 µM | NCI/ADR-RES > 100 µM | PC-3 > 100 µM | RXF 393 > 100 µM | KM12 > 100 µM | MDA-MB-435 > 100 µM | M14 > 100 µM | SK-MEL-28 > 100 µM | SNB-75 > 100 µM | IGROV-1 > 100 µM | 786-0 > 100 µM | DU-145 > 100 µM | A498 > 100 µM | LOX IMVI > 100 µM | NCI-H522 89.3 µM | U-251 > 100 µM | EKVX 74.5 µM | A549 35.8 µM | SF-295 79.8 µM | SN12C > 100 µM | SW-620 > 100 µM | K562 72.3 µM | CAKI-1 > 100 µM | HL-60 > 100 µM | UO-31 > 100 µM | Hs-578T > 100 µM | SR > 100 µM | UACC-62 81.3 µM | SK-MEL-5 > 100 µM | MDA-N > 100 µM | MCF7 > 100 µM | BT-549 > 100 µM | SK-OV-3 > 100 µM | HT-29 > 100 µM | SNB-19 > 100 µM | HOP-62 > 100 µM | OVCAR-8 > 100 µM | NCI-H23 > 100 µM | OVCAR-4 61.7 µM | HOP-92 > 100 µM | Malme-3M > 100 µM | MOLT-4 > 100 µM | OVCAR-5 > 100 µM | SK-MEL-2 > 100 µM | OVCAR-3 > 100 µM | T47D 91.6 µM | NCI-H460 60.8 µM | HCT-116 > 100 µM

CC(C)(C)NC(=O)C12C3C4C1C1C2C3C41C(=O)NC(C)(C)C (stereo not drawn)
inactive: TK-10 > 100 µM | CCRF-CEM 26.4 µM | MDA-MB-231 > 100 µM | SF-539 > 100 µM | SF-268 > 100 µM | ACHN > 100 µM | COLO 205 > 100 µM | UACC-257 > 100 µM | NCI/ADR-RES > 100 µM | PC-3 > 100 µM | RXF 393 40.8 µM | KM12 > 100 µM | MDA-MB-435 > 100 µM | M14 > 100 µM | SK-MEL-28 > 100 µM | IGROV-1 > 100 µM | 786-0 > 100 µM | DU-145 > 100 µM | A498 > 100 µM | LOX IMVI > 100 µM | NCI-H522 > 100 µM | U-251 > 100 µM | EKVX > 100 µM | A549 > 100 µM | SF-295 80 µM | SN12C > 100 µM | SW-620 > 100 µM | K562 > 100 µM | CAKI-1 > 100 µM | HL-60 > 100 µM | UO-31 > 100 µM | Hs-578T 32.8 µM | SR 45.6 µM | UACC-62 > 100 µM | SK-MEL-5 > 100 µM | MDA-N > 100 µM | MCF7 > 100 µM | BT-549 > 100 µM | HT-29 > 100 µM | SNB-19 47.8 µM | HOP-62 58.9 µM | HCC 2998 > 100 µM | OVCAR-8 > 100 µM | NCI-H23 > 100 µM | OVCAR-4 > 100 µM | HOP-92 15.1 µM | MOLT-4 78.3 µM | OVCAR-5 > 100 µM | SK-MEL-2 > 100 µM | OVCAR-3 > 100 µM | T47D > 100 µM | NCI-H460 > 100 µM | HCT-116 > 100 µM
> 100 µM: HCT-15

Source: ChEMBL document CHEMBL1201862, “PubChem BioAssay data set” (2004)
